Tested on in the first series: not given
Test: not given
The conditions noted are these: human absorption data, from Ertl et al., J. Med. Chem. 2000; cited from earlier work.
With `OC[C@H]1O[C@@H](O[C@@H]2[C@@H](CO)OC(O)(CO)[C@H]2O)[C@H](O)[C@@H](O)[C@H]1O` (mixture of isomers) [lactulose], the “% FA” value is listed as 0.6%.
Turning to `C=CCc1ccccc1OCC(O)CNC(C)C` (centres unmarked) [alprenolol], the “% FA” value was 96%.
With `O=C(O)P(=O)(O)O` [foscarnet], the “% FA” value is recorded as 17%.
For `OC[C@@H](O)[C@@H](O)[C@H](O)[C@H](O)CO` [mannitol], the “% FA” value is 26%.
For `Cc1ccccc1N1C(=O)c2cc(S(N)(=O)=O)c(Cl)cc2NC1C` (centres unmarked) [metolazone], the “% FA” value is 64%.
With `O=C(O)c1cc(/N=N/c2ccc(O)c(C(=O)O)c2)ccc1O` [olsalazine], the “% FA” value is reported as 2.3%.
As to `C=CCOc1ccccc1OCC(O)CNC(C)C` (centres unmarked) [oxprenolol], the “% FA” value was 97%.
`CC(C)NCC(O)COc1cccc2[nH]ccc12` (centres unmarked) [pindolol]: the “% FA” value is listed as 92%.
As to `CC(=O)Nc1ccc(OCC(O)CNC(C)C)cc1` (centres unmarked) [practolol], the “% FA” value was 95%.
For the molecule `OC[C@H]1O[C@H](OC[C@H]2O[C@H](O[C@]3(CO)O[C@H](CO)[C@@H](O)[C@@H]3O)[C@H](O)[C@@H](O)[C@@H]2O)[C@H](O)[C@@H](O)[C@H]1O` [raffinose], the “% FA” value is 0.3%.
Consider `O=C(O)c1cc(/N=N/c2ccc(S(=O)(=O)Nc3ccccn3)cc2)ccc1O` [sulfasalazine], for which the “% FA” value is 12%.
Consider `CCN1CCCC1CNC(=O)c1cc(S(N)(=O)=O)ccc1OC` (centres unmarked) [sulpiride], for which the “% FA” value is 36%.
`NC[C@H]1CC[C@H](C(=O)O)CC1` [tranexamic acid]: the “% FA” value is recorded as 55%.

The target of a further series is T1, rat NaP2b (SLC34A2) (Rattus norvegicus, UniProt Q9JJ09).
T1 construct: host or cells: HEK293
T1 sequence (Q9JJ09 1-695): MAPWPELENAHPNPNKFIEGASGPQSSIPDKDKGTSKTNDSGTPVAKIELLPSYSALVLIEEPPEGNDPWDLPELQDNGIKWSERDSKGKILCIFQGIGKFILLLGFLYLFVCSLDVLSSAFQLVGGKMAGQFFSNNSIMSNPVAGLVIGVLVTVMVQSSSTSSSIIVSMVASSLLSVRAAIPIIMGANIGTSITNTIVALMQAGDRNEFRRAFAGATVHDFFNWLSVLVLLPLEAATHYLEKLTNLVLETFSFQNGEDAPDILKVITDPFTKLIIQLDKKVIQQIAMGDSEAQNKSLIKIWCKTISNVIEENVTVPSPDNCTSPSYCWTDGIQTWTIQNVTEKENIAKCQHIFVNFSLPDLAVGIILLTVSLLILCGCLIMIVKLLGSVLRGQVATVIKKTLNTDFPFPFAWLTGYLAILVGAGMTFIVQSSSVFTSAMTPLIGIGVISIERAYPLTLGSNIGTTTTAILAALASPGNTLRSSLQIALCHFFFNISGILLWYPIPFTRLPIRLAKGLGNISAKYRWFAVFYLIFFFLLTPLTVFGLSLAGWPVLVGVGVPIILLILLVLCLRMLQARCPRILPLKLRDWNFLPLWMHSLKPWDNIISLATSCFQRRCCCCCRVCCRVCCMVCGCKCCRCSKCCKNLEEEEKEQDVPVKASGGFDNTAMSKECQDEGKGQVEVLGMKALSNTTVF
The series is described as follows: NaP2b-mediated Pi transport: 33P phosphate uptake into transfected HEK293 cells. Format: cell-based. The conditions noted are these: 100 uM KH2PO4, PiT-silencing agent, read-out: pIC50 range for rat Nap2b (converted). The protocol: Materials. HEK293 cells were obtained from the American Type Culture collection and propagated per their instructions. Expression clones for rat and human NaP2b (SLC34A2) were obtained from Open Biosystems (Catalog numbers MRN1768-9510282, and MHS1010-99823026, respectively). The sequence of the human protein was mutated to insert a threonine after residue 37, and to introduce a N39D mutation.
Inhibition of Pi Transport. The rate of phosphate (Pi) uptake into HEK293 cells was measured using a modification of the method described by Mohrmann et al. (Mohrmann, I., Mohrmann, M., Biber, J., and Murer, H. (1986) Am. J. Phys. 250(3 Pt 1):G323-30.) Transfected HEK293 cells were treated with a pharmacological agent to minimize endogenous PiT-mediated phosphate transport activity, such that the only remaining sodium-dependent phosphate transport activity is that which was bestowed by introduction of the NaP2b genes.
Cells were seeded into 96-well plates at 25,000 cells/well and cultured overnight. Lipofectamine 2000 (Invitrogen) was used to introduce the NaP2b cDNA, and the cells were allowed to approach confluence during a second overnight incubation. […] Cells were then overlayed with either choline uptake buffer or sodium uptake buffer (14 mM Tris, 137 mM sodium chloride, 5.4 mM KCl, 2.8 mM CaCl2, 1.2 mM MgSO4, 100 uM KH2PO4, PiT-silencing agent, 1 mg/mL Bovine Serum Albumin, pH 7.4) containing 6-9 uCi/mL ^33P orthophosphoric acid (Perkin Elmer) and test compound. Each compound was tested at twelve concentrations ranging from 0.1 nM to 30 uM. Assays were run in duplicate.
After incubation for 3-30 minutes at room temperature, assay mixtures were removed, and the cells were washed twice with ice cold stop solution (137 mM sodium chloride, 14 mM Tris, pH 7.4). Cells were lysed by addition of 20 μL 0.1% Tween 80 followed by 100 μL scintillation fluid, and counted using a TopCount (Perkin Elmer).
pIC50 (the negative log of the IC50) values of the test compounds were calculated using GraphPad Prism.
For the molecule `CN(CCN1CCOCC1)C(=O)c1cccc(C(=O)Nc2ccc(N3CCCCC3)cc2C(=O)Nc2ncn(-c3cccc(C(F)(F)F)c3)n2)c1` [Example 2, N1-Methyl-N1-(2-morpholinoethyl)-N3-(4-(piperidin-1-yl)-2-((1-(3-(trifluoromethyl)phenyl)-1H-1,2,4-triazol-3-yl)carbamoyl)phenyl)isophthalamide], the IC50 was 1 to 7.94 µM.
`CN(CCN1CCOCC1)C(=O)c1cccc(C(=O)Nc2ccc(N3CCCCC3)cc2C(=O)Nc2nc(-c3cccc(C(F)(F)F)c3)cs2)c1` [Example 3, N1-Methyl-N1-(2-morpholinoethyl)-N3-(4-(piperidin-1-yl)-2-((4-(3-(trifluoromethyl)phenyl)thiazol-2-yl)carbamoyl)phenyl)isophthalamide]: the IC50 was under 1 µM.
Same read-out and setting: the value for `Cc1ccc(-n2ccc(NC(=O)c3cc(Cl)ccc3NC(=O)c3cccc(CSCCC(=O)O)c3)n2)cc1C` [Example 4, 3-((3-((4-Chloro-2-((1-(3,4-dimethylphenyl)-1H-pyrazol-3-yl)carbamoyl)phenyl)carbamoyl)benzyl)thio)propanoic acid] was 1 to 7.94 µM; that for `Cc1ccc(-n2ccc(NC(=O)c3cc(N4CCCCC4)ccc3NC(=O)c3cccc(CSCCC(=O)O)c3)n2)cc1C` [Example 5, 3-((3-((2-((1-(3,4-Dimethylphenyl)-1H-pyrazol-3-yl)carbamoyl)-4-(piperidin-1-yl)phenyl)carbamoyl)benzyl)thio)propanoic acid] was 1 to 7.94 µM; that for `O=C(O)CCSCc1cccc(C(=O)Nc2ccc(Cl)cc2C(=O)Nc2ccn(-c3cccc(C(F)(F)F)c3)n2)c1` [Example 6, 3-((3-((4-Chloro-2-((1-(3-(trifluoromethyl)phenyl)-1H-pyrazol-3-yl)carbamoyl)phenyl)carbamoyl)benzyl)thio)propanoic acid] was 1 to 7.94 µM.
Turning to `CN(CCOCCOCCOCCC(=O)O)Cc1cccc(C(=O)Nc2ccc(N3CCCCC3)cc2C(=O)Nc2ccn(-c3cccc(C(F)(F)F)c3)n2)n1` [Example 8, 2-methyl-1-(6-((4-(piperidin-1-yl)-2-((1-(3-(trifluoromethyl)phenyl)-1H-pyrazol-3-yl)carbamoyl)phenyl)carbamoyl)pyridin-2-yl)-5,8,11-trioxa-2-azatetradecan-14-oic acid], the IC50 is 1 to 7.94 µM.
Turning to `CCN(CC)CCN(C)Cc1ccc(C(=O)Nc2ccc(N3CCCCC3)cc2C(=O)Nc2ccn(-c3cccc(C(F)(F)F)c3)n2)cc1` [Example 9, 2-(4-(((2-(diethylamino)ethyl)(methyl)amino)methyl)benzamido)-5-(piperidin-1-yl)-N-(1-(3-(trifluoromethyl)phenyl)-1H-pyrazol-3-yl)benzamide], the IC50 is 10 to 31.6 µM.
On the same count and under the same terms, in the case of `O=C(NCCOCCO)c1cccc(C(=O)Nc2ccc(N3CCCCC3)cc2C(=O)Nc2cn(-c3cccc(C(F)(F)F)c3)cn2)c1` [Example 10, N1-(2-(2-Hydroxyethoxyl)ethyl)-N3-(4-(piperidin-1-yl)-2-((1-(3-(trifluoromethyl)phenyl)-1H-imidazol-4-yl)carbamoyl)phenyl)isophthalamide] it was 1 to 7.94 µM; in that of `CCN(CC)CCN(C)Cc1cccc(C(=O)Nc2ccc(N3CCCCC3)cc2C(=O)Nc2ccn(-c3cccc(C(F)(F)F)c3)n2)c1` [Example 12, 2-(3-(((2-(Diethylamino)ethyl)(methyl)amino)methyl)benzamido)-5-(piperidin-1-yl)-N-(1-(3-(trifluoromethyl)phenyl)-1H-pyrazol-3-yl)benzamide], 10 to 31.6 µM; in that of `O=C(NCCOCCO)c1cccc(C(=O)Nc2ccc(N3CCCCC3)cc2C(=O)Nc2ccn(-c3cccc(C(F)(F)F)c3)n2)c1` [Example 13, N1-(2-(2-Hydroxyethoxyl)ethyl)-N3-(4-(piperidin-1-yl)-2-((1-(3-(trifluoromethyl)phenyl)-1H-pyrazol-3-yl)carbamoyl)phenyl)isophthalamide], 1 to 7.94 µM.
Consider `COCCNC(=O)CCN(C)Cc1cccc(C(=O)Nc2ccc(N3CCCCC3)cc2C(=O)Nc2ccn(-c3cccc(C(F)(F)F)c3)n2)c1` [Example 16, 2-(3-(((3-((2-methoxyethyl)amino)-3-oxopropyl)(methyl)amino)methyl)-benzamido)-5-(piperidin-1-yl)-N-(1-(3-(trifluoromethyl)phenyl)-1H-pyrazol-3-yl)-benzamide], for which the IC50 is 1 to 7.94 µM.
In the case of `O=C(O)c1ccc(SCc2cccc(C(=O)Nc3ccc(N4CCCCC4)cc3C(=O)Nc3ccn(-c4cccc(C(F)(F)F)c4)n3)c2)cc1` [Example 21, 4-((3-((4-(piperidin-1-yl)-2-((1-(3-(trifluoromethyl)phenyl)-1H-pyrazol-3-yl)carbamoyl)phenyl)carbamoyl)benzyl)thio)benzoic acid], the IC50 is 1 to 7.94 µM.
As for `O=C(O)Cc1cccc(SCc2cccc(C(=O)Nc3ccc(Cl)cc3C(=O)Nc3ccn(-c4cccc(C(F)(F)F)c4)n3)c2)c1` [Example 24, 2-(3-((3-((4-chloro-2-((1-(3-(trifluoromethyl)phenyl)-1H-pyrazol-3-yl)-carbamoyl)phenyl)carbamoyl)benzyl)thio)phenyl)acetic acid], the IC50 was under 1 µM.
